# Test system: dorsal root ganglia neurons
# Assay: Field stimulation of cultured neurons, membrane potential by di8ANEPPS fluorescence
# Type: cell-based, rat
# Conditions: caffeine added to NTFL
# From the text: The procedure below details a study performed on one type of cultured nerve cells, namely dorsal root ganglia neurons, using a 10% solution of glycerolphospholipids in combination with inulin (NTFL).
# The cultured cells were then exposed to an aqueous solution of the lipid supplement comprising glycerolphospholipids in combination with inulin, referred to as NTFL nanomicelles.
# This was used as an indicator of membrane potential instead of microelectrodes because patching these neurons or the use of microelectrodes can be difficult in these studies in the presence of the NTFL nanomicellles solutions.
# To perform the comparison, electrodes were applied to the bath containing the cultured neurons and field stimulation was provided by passed current through the bath. This caused depolarization of the nerve cells resulting in fluorescence of the di8ANEPPS.
compound,measurement,value
Cn1c(=O)c2c(ncn2C)n(C)c1=O [caffeine],effect on nerve conduction,did not appear to have an effect on nerve conduction
